In ChEMBL document CHEMBL1201862, “PubChem BioAssay data set” (2004) one finds IC50, AC50 and EC50 data, which are given here for five compounds.

Several values for one entry are separate records, joined by “and”; a condition that tells them apart may be missing. Identical values can stand only once. Activity calls are given as the source filed them. Bounds are passed on as bounds.

Data set [1] addresses Bcl-2-like protein 1 (Homo sapiens, UniProt Q07817). As to the kind of experiment: BCL-XL inhibitors, dose response, selectivity assay for MCL1 inhibitor project, biochemical, fluorescence polarization, 1536-well (AID 2218). A general note: Fluorescence polarisation rises when a labelled molecule tumbles more slowly, as on binding a larger partner.
The target in data set [2] is NS3 (Hepatitis C virus, UniProt A3EZJ3). As to the kind of experiment: PubChem AID 2173. Details: species or system Hepacivirus hominis.
Data set [3] has as its target T1, Dual specificity protein phosphatase 3 (Homo sapiens, UniProt P51452). As to the kind of experiment: VHR1 phosphatase inhibitors, biochemical (AID 1878).
Data set [4] has as its target Phospholipase A2 (Homo sapiens, UniProt P04054). It counts as functional.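 Note: confirmatory dose-response counterscreen on phospholipase A2, testing hits that came from an ultra-high-throughput screen for ATG4B inhibitors.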
Data set [5] in a line: inhibitors of Bluetongue virus cytopathic effect, confirmation, arbovirus, BSR cells (AID 1250).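 Note: protection from viral cytopathic effect measured as cell viability by ATP luminescence.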 It counts as functional.
The target of data set [6] is T2, Cysteine protease ATG4B (Homo sapiens, UniProt Q9Y4P1).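 Note: Fluorescence-based dose-response confirmation assay measuring inhibition of ATG4B activity.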
T2 sequence (Q9Y4P1 whole entry): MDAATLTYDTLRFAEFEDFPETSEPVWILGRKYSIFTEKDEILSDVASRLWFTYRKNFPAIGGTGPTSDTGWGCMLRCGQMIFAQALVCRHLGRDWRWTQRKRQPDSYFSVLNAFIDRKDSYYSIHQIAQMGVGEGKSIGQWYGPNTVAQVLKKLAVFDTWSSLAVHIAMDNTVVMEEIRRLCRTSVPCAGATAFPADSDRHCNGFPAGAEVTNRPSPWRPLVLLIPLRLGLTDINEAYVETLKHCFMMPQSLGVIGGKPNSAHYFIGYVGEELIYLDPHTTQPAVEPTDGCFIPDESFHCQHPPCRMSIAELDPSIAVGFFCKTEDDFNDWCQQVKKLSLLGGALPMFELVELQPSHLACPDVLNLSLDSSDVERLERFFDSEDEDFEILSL
It counts as functional.

In data set [7] the target is T3, Induced myeloid leukemia cell differentiation protein Mcl-1 (Homo sapiens, UniProt Q07820). Description: MCL1-BIM BH3 interaction inhibitors, dose response, biochemical, fluorescence polarization, BIM-BH3 peptide, 1536-well (AID 2217).
For data set [8], the target named is T4, Voltage-gated N-type calcium channel alpha-1B subunit/Amyloid beta A4 precursor protein-binding family A member 1 (Homo sapiens, UniProt Q00975+Q02410). It counts as protein assay.
The target of data set [9] is T1, Dual specificity protein phosphatase 3. Description: VHR1 phosphatase inhibitors, primary screen, biochemical, absorbance, uHTS (AID 1654).
The target in data set [10] is T3, Induced myeloid leukemia cell differentiation protein Mcl-1. It counts as functional.
Data set [11] deals with T4, Voltage-gated N-type calcium channel alpha-1B subunit/Amyloid beta A4 precursor protein-binding family A member 1. It counts as protein assay. The source holds these as a separate data set.
The target in data set [12] is T5, Dual specificity protein phosphatase 6 (Rattus norvegicus, UniProt Q64346). As to the kind of experiment: MKP-3 phosphatase inhibitors, primary screen, biochemical, rat enzyme, in vitro (AID 425).
Data set [13] concerns the target Eukaryotic translation initiation factor 4E (Mus musculus, UniProt P63073). Description: eIF4E–eIF4G protein interaction inhibitors, dose response, biochemical, TR-FRET (AID 855).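 Note: potency for disrupting eIF4E binding to eIF4GI seen as loss of FRET.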 It counts as functional.
Data set [14] concerns the target Tyrosine-protein phosphatase non-receptor type 7 (Homo sapiens, UniProt P35236). As to the kind of experiment: redox-dependent HePTP inhibition, mechanism study, biochemical, fluorescence (AID 2068). It counts as functional.
For data set [15], the target named is T5, Dual specificity protein phosphatase 6. It counts as functional.
The target of data set [16] is ORF 73 (Human herpesvirus 8, UniProt O40947). Description: inhibitors of C-LANA binding to LBS DNA, dose response, biochemical, fluorescence polarization, cherry-picked samples (AID 504725).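 Note: fluorescence polarization of a labeled DNA duplex reporting LANA DNA binding; potency is for inhibitors that block LANA binding to the DNA.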 Details: species or system Human gammaherpesvirus 8.
In data set [17] the target is Protein S100-A4 (Homo sapiens, UniProt P26447). Description: S100A4-myosin IIA binding inhibitor potency, dose response, biochemical, fluorescence polarization, cherry-picked hits (AID 687001). It counts as functional.
The target of data set [18] is T6, RNA-binding protein pos-1 (Caenorhabditis elegans, UniProt G5EF15).
T6 sequence (G5EF15 whole entry): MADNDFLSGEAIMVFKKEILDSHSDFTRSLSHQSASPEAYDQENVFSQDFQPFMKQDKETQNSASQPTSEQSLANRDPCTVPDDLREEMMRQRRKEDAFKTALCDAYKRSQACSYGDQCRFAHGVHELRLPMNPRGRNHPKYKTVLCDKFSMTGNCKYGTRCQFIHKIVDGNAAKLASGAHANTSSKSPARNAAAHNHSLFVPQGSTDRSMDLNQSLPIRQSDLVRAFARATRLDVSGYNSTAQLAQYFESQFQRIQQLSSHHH
As to the kind of experiment: inhibitors of POS-1/mex-3 RNA binding, dose response, biochemical, fluorescence polarization (AID 1964).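 Note: purified POS-1 fused to maltose binding protein made in E. coli; potency of compounds blocking POS-1 binding to fluorescent RNA.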

For data set [19], the target named is E3 ubiquitin-protein ligase XIAP (Homo sapiens, UniProt P98170). As to the kind of experiment: Counter Screen using XIAP-Bir3 for Chemical Antagonists of Bir1/2 domains of IAP-family anti-apoptotic proteins. [Related pubchem assays (depositor defined):AID1018, AID1449, AID1514, AID1638, AID1749, AID1750, AID488957, AID488963]. (Counterscreens check selectivity or assay interference.)

Data set [20] deals with T7, Fibrinogen beta chain (Homo sapiens, UniProt P02675).
T7 sequence (P02675 whole entry): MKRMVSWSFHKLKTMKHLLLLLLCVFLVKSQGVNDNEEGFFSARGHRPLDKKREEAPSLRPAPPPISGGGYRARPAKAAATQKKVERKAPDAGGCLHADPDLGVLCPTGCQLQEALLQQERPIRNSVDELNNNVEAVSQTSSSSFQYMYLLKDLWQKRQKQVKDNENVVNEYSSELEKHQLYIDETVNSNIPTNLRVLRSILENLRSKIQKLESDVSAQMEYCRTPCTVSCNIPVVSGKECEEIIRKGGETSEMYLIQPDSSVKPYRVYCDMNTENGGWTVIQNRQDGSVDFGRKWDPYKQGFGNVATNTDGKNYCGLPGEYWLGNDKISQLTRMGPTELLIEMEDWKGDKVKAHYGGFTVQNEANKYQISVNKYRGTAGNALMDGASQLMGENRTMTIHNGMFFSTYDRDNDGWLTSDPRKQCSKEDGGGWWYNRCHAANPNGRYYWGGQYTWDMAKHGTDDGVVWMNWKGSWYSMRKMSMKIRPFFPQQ
Description: Fluorescence polarization-based biochemical high throughput dose response assay to identify inhibitors that disrupt the binding of a cyclic peptide (Tn7) to the fibrin proteolytic product D-Dimer and fragment E complex [DD(E )].

Data set [21] addresses T8, Zinc finger protein mex-5 (Caenorhabditis elegans, UniProt Q9XUB2).
T8 sequence (Q9XUB2 whole entry): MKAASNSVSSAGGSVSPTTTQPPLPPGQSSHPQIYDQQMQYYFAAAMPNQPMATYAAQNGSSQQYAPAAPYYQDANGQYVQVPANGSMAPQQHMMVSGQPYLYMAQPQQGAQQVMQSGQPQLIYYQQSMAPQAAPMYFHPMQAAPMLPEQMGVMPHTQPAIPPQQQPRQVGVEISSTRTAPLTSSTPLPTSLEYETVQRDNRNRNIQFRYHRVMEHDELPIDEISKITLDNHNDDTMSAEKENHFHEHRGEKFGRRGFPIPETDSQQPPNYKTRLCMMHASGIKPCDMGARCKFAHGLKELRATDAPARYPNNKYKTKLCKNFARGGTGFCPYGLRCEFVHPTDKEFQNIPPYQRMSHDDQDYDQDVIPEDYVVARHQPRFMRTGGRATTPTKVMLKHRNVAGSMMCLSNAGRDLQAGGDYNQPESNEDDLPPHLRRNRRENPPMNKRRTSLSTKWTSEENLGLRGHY
Description: MEX-5/TCR-2 RNA interaction inhibitors, dose response, biochemical, C. elegans, fluorescence polarization (AID 1960).

The target in data set [22] is T7, Fibrinogen beta chain. As to the kind of experiment: Fluorescence polarization-based biochemical high throughput dose response assay to identify inhibitors that disrupt the binding of a cyclic peptide (Tn6) to the fibrin proteolytic product D-Dimer and fragment E complex [DD(E )].
Data set [23] addresses UDP-galactopyranose mutase (Mycobacterium tuberculosis, UniProt P9WIQ1). As to the kind of experiment: Inhibitors of Mycobacterium tuberculosis UDP-galactopyranose mutase (UGM) enzyme Measured in Biochemical System Using Plate Reader - 2105-02_Inhibitor_Dose_CherryPick_Activity. [Related pubchem assays (depositor defined):AID504439].
Data set [24] addresses Keap1/Nrf2 (Homo sapiens, UniProt Q14145). Description: Keap1-Nrf2 protein-protein interaction inhibitors, dose response, biochemical, fluorescence polarization, cherry-picked samples (AID 588683).
The target in data set [25] is T9, Cytochrome P450 1A2 (Homo sapiens, UniProt P05177).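 Note: PubChem cytochrome P450 panel assay, CYP1A2 panel member.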
T9 sequence (P05177 whole entry): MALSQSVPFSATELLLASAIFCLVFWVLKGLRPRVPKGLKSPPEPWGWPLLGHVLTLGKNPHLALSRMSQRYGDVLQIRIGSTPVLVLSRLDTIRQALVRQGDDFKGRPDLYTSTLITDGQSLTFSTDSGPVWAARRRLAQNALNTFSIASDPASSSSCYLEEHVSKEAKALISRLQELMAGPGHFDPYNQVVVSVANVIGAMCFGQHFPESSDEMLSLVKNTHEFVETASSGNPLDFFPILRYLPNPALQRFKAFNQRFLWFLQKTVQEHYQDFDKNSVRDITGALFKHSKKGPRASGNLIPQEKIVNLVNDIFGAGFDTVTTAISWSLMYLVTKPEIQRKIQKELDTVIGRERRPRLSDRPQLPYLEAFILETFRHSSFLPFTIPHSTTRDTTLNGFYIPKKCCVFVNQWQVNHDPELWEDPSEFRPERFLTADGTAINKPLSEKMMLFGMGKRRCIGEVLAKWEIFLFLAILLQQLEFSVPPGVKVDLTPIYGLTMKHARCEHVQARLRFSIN

Data set [26] concerns the target Cytochrome P450 2D6 (Homo sapiens, UniProt P10635).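 Note: CYP2D6 member of a cytochrome P450 panel assay.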
The target in data set [27] is T10, Heat shock factor protein 1 (Mus musculus, UniProt P38532).
T10 sequence (P38532 whole entry): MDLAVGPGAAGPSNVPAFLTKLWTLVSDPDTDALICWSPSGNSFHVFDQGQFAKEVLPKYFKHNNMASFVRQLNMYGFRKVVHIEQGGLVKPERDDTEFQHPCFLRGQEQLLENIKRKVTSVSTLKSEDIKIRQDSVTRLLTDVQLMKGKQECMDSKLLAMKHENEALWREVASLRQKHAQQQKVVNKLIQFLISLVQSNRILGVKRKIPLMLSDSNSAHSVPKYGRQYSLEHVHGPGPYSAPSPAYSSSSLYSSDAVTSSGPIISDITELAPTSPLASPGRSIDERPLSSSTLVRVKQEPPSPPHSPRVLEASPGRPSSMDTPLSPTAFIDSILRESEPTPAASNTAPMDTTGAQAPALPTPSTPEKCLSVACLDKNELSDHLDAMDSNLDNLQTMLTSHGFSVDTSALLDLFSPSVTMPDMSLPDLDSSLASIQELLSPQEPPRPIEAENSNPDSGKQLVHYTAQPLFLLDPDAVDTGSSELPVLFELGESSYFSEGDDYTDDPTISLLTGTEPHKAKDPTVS
As to the kind of experiment: inhibition of MG132-induced HSE-luciferase signal, confirmation, cell-based, NIH3T3, luminescence, dose retest (AID 2382).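 Note: NIH3T3 fibroblasts with HSF1-driven luciferase reporter stressed by proteasome inhibitor MG132; luminescence from HSF1-driven luciferase expression after 8 hours of MG132 stress.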 It counts as functional.

Data set [28] addresses Trypsin (Sus scrofa, UniProt P00761). Description: porcine trypsin inhibitors, dose response, selectivity assay for Rce1 protease inhibitor project, biochemical, quenched peptide fluorescence, cherry-pick (AID 488789).
Data set [29] deals with CAAX prenyl protease 1 (Saccharomyces cerevisiae S288c, UniProt P47154). Description: Ste24 protease inhibitors, dose response, biochemical, S. cerevisiae, plate reader, cherry-pick (AID 488815).

T5 sequence (Q64346 whole entry): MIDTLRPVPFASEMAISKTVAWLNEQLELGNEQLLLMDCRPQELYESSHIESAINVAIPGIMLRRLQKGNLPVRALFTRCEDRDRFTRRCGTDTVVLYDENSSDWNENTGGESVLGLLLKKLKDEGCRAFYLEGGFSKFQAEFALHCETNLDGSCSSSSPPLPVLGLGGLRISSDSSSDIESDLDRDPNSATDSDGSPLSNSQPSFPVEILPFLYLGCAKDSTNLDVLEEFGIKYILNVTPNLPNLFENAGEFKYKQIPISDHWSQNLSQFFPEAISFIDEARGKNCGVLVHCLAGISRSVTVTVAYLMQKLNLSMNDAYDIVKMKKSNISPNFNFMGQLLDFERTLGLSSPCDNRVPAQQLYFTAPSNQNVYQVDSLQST
T4 sequence (Q00975 whole entry): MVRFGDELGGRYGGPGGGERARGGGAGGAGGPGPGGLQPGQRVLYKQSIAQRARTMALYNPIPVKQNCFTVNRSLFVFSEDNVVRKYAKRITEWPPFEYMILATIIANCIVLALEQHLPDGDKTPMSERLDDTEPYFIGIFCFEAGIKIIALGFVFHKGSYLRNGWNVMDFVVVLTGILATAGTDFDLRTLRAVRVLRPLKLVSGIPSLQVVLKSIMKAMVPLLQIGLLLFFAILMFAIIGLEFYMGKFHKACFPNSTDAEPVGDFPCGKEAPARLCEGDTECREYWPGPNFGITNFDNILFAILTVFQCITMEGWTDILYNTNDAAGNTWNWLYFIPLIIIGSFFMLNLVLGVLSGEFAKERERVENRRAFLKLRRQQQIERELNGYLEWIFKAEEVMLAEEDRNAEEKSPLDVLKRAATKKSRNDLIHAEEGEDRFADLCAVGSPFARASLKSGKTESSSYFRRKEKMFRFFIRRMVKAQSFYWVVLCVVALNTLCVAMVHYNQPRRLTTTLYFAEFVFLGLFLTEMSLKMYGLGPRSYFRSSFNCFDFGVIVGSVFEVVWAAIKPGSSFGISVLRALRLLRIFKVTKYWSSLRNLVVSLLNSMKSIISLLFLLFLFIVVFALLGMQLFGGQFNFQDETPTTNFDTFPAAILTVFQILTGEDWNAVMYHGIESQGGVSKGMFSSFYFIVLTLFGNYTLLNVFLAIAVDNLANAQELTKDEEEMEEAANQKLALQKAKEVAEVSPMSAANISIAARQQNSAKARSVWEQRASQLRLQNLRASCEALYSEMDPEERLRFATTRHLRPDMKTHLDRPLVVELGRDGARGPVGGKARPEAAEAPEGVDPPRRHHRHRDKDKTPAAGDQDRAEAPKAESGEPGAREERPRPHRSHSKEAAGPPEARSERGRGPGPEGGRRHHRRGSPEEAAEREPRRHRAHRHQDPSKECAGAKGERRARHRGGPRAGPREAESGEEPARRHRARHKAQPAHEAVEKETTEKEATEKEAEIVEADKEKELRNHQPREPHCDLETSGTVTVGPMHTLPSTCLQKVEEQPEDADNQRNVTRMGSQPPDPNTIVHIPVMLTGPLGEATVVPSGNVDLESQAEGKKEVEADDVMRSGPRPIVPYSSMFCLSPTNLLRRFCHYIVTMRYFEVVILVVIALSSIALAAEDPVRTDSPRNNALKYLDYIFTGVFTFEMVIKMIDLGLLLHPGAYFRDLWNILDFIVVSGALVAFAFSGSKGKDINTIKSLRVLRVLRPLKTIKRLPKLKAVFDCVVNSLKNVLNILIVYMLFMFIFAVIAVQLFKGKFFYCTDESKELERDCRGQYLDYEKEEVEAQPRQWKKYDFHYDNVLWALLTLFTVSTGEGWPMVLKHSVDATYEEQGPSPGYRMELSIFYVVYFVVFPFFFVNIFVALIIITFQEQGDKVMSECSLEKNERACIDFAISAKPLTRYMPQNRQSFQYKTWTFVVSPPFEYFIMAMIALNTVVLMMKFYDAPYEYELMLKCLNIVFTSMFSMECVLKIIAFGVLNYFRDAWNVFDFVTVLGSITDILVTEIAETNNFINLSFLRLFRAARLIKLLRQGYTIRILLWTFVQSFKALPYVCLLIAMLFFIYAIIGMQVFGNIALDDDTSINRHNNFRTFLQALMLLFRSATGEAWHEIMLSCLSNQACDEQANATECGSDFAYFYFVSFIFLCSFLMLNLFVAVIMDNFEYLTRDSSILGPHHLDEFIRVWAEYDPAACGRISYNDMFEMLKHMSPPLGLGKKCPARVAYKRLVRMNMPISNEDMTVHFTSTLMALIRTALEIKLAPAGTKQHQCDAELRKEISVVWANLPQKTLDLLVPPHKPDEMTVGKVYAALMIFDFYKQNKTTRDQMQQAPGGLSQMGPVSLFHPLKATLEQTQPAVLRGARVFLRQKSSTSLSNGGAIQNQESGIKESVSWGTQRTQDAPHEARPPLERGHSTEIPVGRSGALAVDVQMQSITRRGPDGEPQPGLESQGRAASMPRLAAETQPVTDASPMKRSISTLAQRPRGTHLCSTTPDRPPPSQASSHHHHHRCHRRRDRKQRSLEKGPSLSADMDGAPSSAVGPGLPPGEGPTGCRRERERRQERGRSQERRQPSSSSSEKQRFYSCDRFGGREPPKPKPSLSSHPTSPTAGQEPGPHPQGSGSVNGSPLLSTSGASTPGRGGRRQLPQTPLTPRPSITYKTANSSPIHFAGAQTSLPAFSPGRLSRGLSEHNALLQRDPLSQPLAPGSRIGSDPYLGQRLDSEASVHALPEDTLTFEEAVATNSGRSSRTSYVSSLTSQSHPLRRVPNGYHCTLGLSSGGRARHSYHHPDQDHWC
T4 sequence (Q02410 whole entry): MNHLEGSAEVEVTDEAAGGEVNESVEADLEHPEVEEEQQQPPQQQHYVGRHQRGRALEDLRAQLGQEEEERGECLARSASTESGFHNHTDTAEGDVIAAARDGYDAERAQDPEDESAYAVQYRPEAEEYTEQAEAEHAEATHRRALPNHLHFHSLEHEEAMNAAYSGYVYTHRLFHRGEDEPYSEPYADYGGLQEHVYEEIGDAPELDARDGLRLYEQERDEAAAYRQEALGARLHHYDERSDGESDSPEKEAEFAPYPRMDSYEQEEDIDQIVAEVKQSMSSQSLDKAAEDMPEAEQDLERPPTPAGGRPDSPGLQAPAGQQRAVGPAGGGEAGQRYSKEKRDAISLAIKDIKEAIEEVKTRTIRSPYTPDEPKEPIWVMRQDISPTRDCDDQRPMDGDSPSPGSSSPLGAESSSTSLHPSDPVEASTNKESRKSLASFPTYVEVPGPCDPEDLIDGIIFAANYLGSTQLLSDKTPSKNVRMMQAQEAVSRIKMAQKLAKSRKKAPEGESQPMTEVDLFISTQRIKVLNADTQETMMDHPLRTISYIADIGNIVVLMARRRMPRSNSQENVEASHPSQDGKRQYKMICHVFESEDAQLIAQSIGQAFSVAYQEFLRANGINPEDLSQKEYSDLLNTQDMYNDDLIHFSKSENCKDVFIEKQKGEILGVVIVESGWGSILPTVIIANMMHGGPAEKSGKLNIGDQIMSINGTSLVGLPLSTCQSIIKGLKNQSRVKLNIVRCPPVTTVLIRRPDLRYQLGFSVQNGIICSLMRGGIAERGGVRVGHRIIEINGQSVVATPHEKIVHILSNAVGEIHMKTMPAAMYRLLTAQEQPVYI
T3 sequence (Q07820 whole entry): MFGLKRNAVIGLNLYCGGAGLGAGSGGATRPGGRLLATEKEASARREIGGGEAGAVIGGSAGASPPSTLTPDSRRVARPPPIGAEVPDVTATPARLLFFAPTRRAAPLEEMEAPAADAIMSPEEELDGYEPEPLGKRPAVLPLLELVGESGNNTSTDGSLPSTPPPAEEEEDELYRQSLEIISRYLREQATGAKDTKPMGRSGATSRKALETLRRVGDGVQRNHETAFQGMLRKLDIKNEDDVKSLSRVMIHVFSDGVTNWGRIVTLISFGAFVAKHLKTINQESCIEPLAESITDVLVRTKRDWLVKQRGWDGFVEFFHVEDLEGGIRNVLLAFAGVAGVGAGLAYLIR
Sequence of Cytochrome P450 2D6 (P10635 whole entry): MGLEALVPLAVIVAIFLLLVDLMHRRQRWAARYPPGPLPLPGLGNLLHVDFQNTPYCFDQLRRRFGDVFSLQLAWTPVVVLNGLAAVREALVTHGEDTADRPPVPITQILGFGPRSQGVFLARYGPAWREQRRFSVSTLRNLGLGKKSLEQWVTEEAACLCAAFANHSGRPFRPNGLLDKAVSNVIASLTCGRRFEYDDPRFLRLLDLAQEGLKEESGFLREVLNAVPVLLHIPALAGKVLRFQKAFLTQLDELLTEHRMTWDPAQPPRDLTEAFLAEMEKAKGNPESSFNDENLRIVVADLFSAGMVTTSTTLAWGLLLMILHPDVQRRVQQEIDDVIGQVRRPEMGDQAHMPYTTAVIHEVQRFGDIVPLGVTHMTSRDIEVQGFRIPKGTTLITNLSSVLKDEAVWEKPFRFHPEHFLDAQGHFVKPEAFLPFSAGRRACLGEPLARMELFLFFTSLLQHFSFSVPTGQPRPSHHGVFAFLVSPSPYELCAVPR
T1 sequence (P51452 whole entry): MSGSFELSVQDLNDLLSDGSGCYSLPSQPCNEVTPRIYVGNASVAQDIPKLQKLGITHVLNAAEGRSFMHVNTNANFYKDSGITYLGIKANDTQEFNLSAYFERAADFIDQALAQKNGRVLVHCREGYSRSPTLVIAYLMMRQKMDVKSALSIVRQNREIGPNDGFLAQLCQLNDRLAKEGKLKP
Sequence of UDP-galactopyranose mutase (P9WIQ1 whole entry): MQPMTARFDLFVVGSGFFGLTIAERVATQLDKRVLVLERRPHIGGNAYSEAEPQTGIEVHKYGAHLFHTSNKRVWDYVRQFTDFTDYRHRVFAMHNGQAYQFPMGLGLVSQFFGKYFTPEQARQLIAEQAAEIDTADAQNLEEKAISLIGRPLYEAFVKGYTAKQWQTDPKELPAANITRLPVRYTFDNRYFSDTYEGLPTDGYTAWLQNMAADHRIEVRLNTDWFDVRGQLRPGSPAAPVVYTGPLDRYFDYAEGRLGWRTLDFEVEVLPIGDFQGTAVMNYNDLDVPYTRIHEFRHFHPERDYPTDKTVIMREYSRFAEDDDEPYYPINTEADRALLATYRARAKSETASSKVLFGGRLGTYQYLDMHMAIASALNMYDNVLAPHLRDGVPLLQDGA

Regarding `COc1ccc(-n2cccc2/C=C2\C(=N)N3N=C(c4ccco4)SC3=NC2=O)cc1`, the IC50 (commonly the point on the concentration scale where inhibition reaches its midpoint) is > 109 µM (not active) in [1]; 7.79 µM (active) in [2]; 2.27 µM (active) in data set [3]; 1.09 µM (active) in [4]; 33.2 µM (active) in [5]; 2.73 µM (active) in [6]. In addition, the IC50 in [7] was 4.93 µM (active); in data set [8] it was 14.1 µM (active); in data set [9], 6.65 µM (active); in [10] it was 19.3 µM (active); in [11], > 50 µM (inactive); in data set [12], 9.04 µM (active). For the same compound, the IC50 in [13] is 50 µM (inactive).

On to `COc1cc(C(=S)NCc2ccc(F)c(C)c2)ccc1O`, for which the figures for the half-maximal inhibitory concentration (IC50) in data set [14] and in data set [15] were 4.33 µM (active) and > 100 µM (inactive), respectively.

Consider `CN1C(=O)NC(c2ccccc2[N+](=O)[O-])C2=C1CCCC2=O` (centres undefined), for which the AC50 – broadly, the midpoint of the concentration-response curve, whichever way the signal moves – was 24.9 µM (active) in data set [16], 1.41 µM (active) in [17], 54.3 µM (active) in [23] and 44.5 µM (active) in [24]. The EC50 – broadly, the concentration that produces a half-maximal response – in [18] was 8.8 µM (active); in data set [21] it was 7.58 µM (inconclusive). The values for the IC50 in data set [19], in data set [20] and in data set [22] were > 20 µM (inactive), > 83.3 µM (inactive) and 11.3 µM (inactive), respectively.

`Cc1ccc(N(CC2=NCCN2)c2cccc(O)c2)cc1` [PHENTOLAMINE]: the AC50 entry in data set [25] was “inactive”; in data set [26] it was 794 nM (active) and 1.12 µM (active). For the same compound, in [27], the EC50 is > 195 µM (not active).

Regarding `CCCCNC(=O)C(CC)Sc1nc2sc(C(=O)OC)c(C)c2c(=O)n1N` (centres undefined), the figures for the half-maximal activity concentration (AC50) in data set [28] and in data set [29] were 0.985 µM (active) and 8.14 µM (active), respectively.
